In patent US8802713B2, “3-alkoxy-1-phenylpyrazole derivatives and pesticides” (Kumiai Chemical Industry Co., Ltd., priority 2007, dated 2014):
Like-named read-outs stand apart in the source and are kept apart here.

What was measured:
cotton bollworm = experiment: Insecticidal test on cotton bollworm; format: in vivo; conditions: Helicoverpa armigera, 144 h
Description: A wettable powder prepared in accordance with Formulation Example 2 was diluted with water to a concentration of an active ingredient of 500 ppm. Cabbage leaves were dipped in this solution and dried in air and then put in a plastic cup having a capacity of 60 mL. Five hatched larvae of cotton bollworm were released in the cup, and the cup was lidded and placed in a thermostatic chamber at 25° C. for 6 days, and the number of dead larvae were assessed for calculation of the mortality by Equation 2. The test was carried out by two series system.

two-spotted spider mites = experiment: Miticidal test on two-spotted spider mites (seedling dip); format: in vivo, Tetranvchus urticae; conditions: Glycine max, 312 h, read-out: protective value
Description: A wettable powder prepared in accordance with Formulation Example 2 was diluted with water to a concentration of an active ingredient of 500 ppm. Soybean seedlings which had been inoculated with imago two-spotted spider mites were dipped in the solution and dried in air. The treated soybean seedlings were placed in a thermostatic chamber at 25° C. for 13 days, and the number of live mites were assessed for calculation of the protective value by Equation 1. The test was carried out by one series system.

brown rice planthopper = experiment: Insecticidal test on brown rice planthopper; format: in vivo; conditions: 144 h
Description: A wettable powder prepared in accordance with Formulation Example 2 was diluted with water to a concentration of an active ingredient of 500 ppm. Rice sprouts were dipped in this solution and put in a plastic cup having a capacity of 60 mL. Ten third-instar larvae of brown rice planthopper were released in the cup, the cup was lidded and placed in a thermostatic chamber at 25° C. for 6 days, and the number of dead larvae were counted for calculation of the mortality by Equation 2. The test was carried out by one series system.

cotton aphid = experiment: Insecticidal test on cotton aphid (seedling dip); format: in vivo; conditions: Aphis gossypii, 72 h
Description: A wettable powder prepared in accordance with Formulation Example 2 was diluted with water to a concentration of an active ingredient of 500 ppm. Cucumber seedlings which had been inoculated with larvae of cotton aphid were dipped in this solution and dried in air. The treated cucumber seedlings were placed in a thermostatic chamber at 25° C. for 3 days, and the live insects were counted for calculation of the mortality by Equation 2. The test was carried out by one series system.

diamondback moth = experiment: Insecticidal test on diamondback moth; format: in vivo; conditions: Plutella xylostella, 144 h
Description: A wettable powder prepared in accordance with Formulation Example 2 was diluted with water to a concentration of an active ingredient of 500 ppm. Cabbage leaves were dipped in this solution and dried in air and then put in a plastic cup having a capacity of 60 mL. 10 second-instar larvae of diamondback moth were released in the cup and the cup was lidded. Then, the cup was placed in a thermostatic chamber at 25° C. for 6 days, and dead moths were counted for calculation of the mortality by Equation 2. The test was carried out by one series system.

[1] = 500 ppm active ingredient, soybean seedlings with imago mites dipped, 25° C., 13 days
[2] = 500 ppm active ingredient, cabbage leaves dipped, hatched larvae, 25° C., 6 days, read-out: mortality
[3] = 500 ppm active ingredient, cabbage leaves dipped, second-instar larvae, 25° C., 6 days, read-out: mortality
[4] = 500 ppm active ingredient, cucumber seedlings with larvae of cotton aphid dipped, 25° C., 3 days, read-out: mortality

Row | melting point [°C] | SMILES | mortality at 500 ppm (cotton bollworm; in Brassica oleracea) [%] | pest or weed control at 500 ppm (two-spotted spider mites; [1]) [%] | mortality at 500 ppm (brown rice planthopper) [%] | mortality at 500 ppm (cotton aphid; in Cucumis sativus) [%] | mortality at 500 ppm (diamondback moth; in Brassica oleracea) [%] | mortality at 500 ppm (cotton bollworm; [2]) [%] | pest or weed control at 500 ppm (two-spotted spider mites) [%] | mortality at 500 ppm (diamondback moth; [3]) [%] | mortality at 500 ppm (cotton aphid; [4]) [%]
1 | – | Cc1cc(F)c(-n2nc(OC(F)(F)C(F)C(F)(F)F)cc2N)cc1SCC(F)(F)F (stereo not shown) [1-9, 5-amino-1-{2-fluoro-4-methyl-5-(2,2,2-trifluoroethylthio)phenyl}-3-(1,1,2,3,3,3-hexafluoropropoxy)pyrazole] | ≥ 90 | ≥ 90 | ≥ 90 | ≥ 90 | ≥ 90 | – | – | – | –
2 | – | CC(=O)Nc1cc(OC(F)(F)C(F)OC(F)(F)F)nn1-c1cc(SCC(F)(F)F)c(C)cc1F (stereo not shown) [1-15, 5-acetylamino-1-{2-fluoro-4-methyl-5-(2,2,2-trifluoroethylthio)phenyl}-3-{1,1,2-trifluoro-2-(trifluoromethoxy)ethoxy}pyrazole] | ≥ 90 | ≥ 90 | ≥ 90 | ≥ 90 | ≥ 90 | – | – | – | –
3 | – | CC(=O)Nc1cc(OC(F)(F)C(F)OC(F)(F)F)nn1-c1cc([S+]([O-])CC(F)(F)F)c(C)cc1F (stereo not shown) [1-16, 5-acetylamino-1-{2-fluoro-4-methyl-5-(2,2,2-trifluoroethylsulfinyl)phenyl}-3-{1,1,2-trifluoro-2-(trifluoromethoxy)ethoxy}pyrazole] | ≥ 90 | ≥ 90 | – | ≥ 90 | ≥ 90 | – | – | – | –
4 | – | CC(=O)Nc1cc(OCC(F)(F)C(F)(F)F)nn1-c1cc(SCC(F)(F)F)c(C)cc1F [1-17, 5-acetylamino-1-{2-fluoro-4-methyl-5-(2,2,2-trifluoroethylthio)phenyl}-3-(2,2,3,3,3-pentafluoropropoxy)pyrazole] | ≥ 90 | ≥ 90 | ≥ 90 | ≥ 90 | ≥ 90 | – | – | – | –
5 | – | CC(=O)Nc1cc(OCC(F)(F)C(F)(F)C(F)(F)C(F)(F)F)nn1-c1cc(SCC(F)(F)F)c(C)cc1F [1-77, 5-acetylamino-1-{2-fluoro-4-methyl-5-(2,2,2-trifluoroethylthio)phenyl}-3-(2,2,3,3,4,4,5,5,5-nonafluoropentyloxy)pyrazole] | – | – | ≥ 90 | – | – | ≥ 90 | ≥ 90 | ≥ 90 | –
6 | – | CC(=O)Nc1cc(OCC(F)(F)C(F)(F)C(F)(F)C(F)(F)F)nn1-c1cc([S+]([O-])CC(F)(F)F)c(C)cc1F (stereo not shown) [1-78, 5-acetylamino-1-{2-fluoro-4-methyl-5-(2,2,2-trifluoroethylsulfinyl)phenyl}-3-(2,2,3,3,4,4,5,5,5-nonafluoropentyloxy)pyrazole] | – | – | ≥ 90 | – | – | ≥ 90 | ≥ 90 | ≥ 90 | –
7 | 102 to 104 | Cc1cc(F)c(-n2nc(OCC(F)(F)C(F)(F)F)cc2CC(N)=O)cc1SCC(F)(F)F [1-139, 1-{2-fluoro-4-methyl-5-(2,2,2-trifluoroethylthio)phenyl}-3-(2,2,3,3,3-pentafluoropropoxy)pyrazole-5-carboxyamide] | – | – | – | – | – | – | – | – | –
8 | – | C#CCNc1cc(OCC(F)(F)C(F)(F)F)nn1-c1cc(SCC(F)(F)F)c(C)cc1F [1-161, 1-{2-fluoro-4-methyl-5-(2,2,2-trifluoroethylthio)phenyl}-3-(2,2,3,3,3-pentafluoropropoxy)-5-(2-propynylamino)pyrazole] | ≥ 90 | ≥ 90 | ≥ 90 | ≥ 90 | ≥ 90 | – | – | – | –
9 | – | CC(=O)Nc1cc(OCC(F)(F)C(F)(F)F)nn1-c1cc([S+]([O-])CC(F)(F)Cl)c(C)cc1F (stereo not shown) [1-178, 5-acetylamino-1-{2-fluoro-4-methyl-5-(2-chloro-2,2-difluoroethylsulfinyl)phenyl}-3-(2,2,3,3,3-pentafluoropropoxy)pyrazole] | – | – | ≥ 90 | – | – | ≥ 90 | – | ≥ 90 | –
10 | – | CNc1cc(OC(F)(F)C(F)C(F)(F)F)nn1-c1cc([S+]([O-])CC(F)(F)F)c(C)cc1F (stereo not shown) [1-187, 1-{2-fluoro-4-methyl-5-(2,2,2-trifluoroethylsulfinyl)phenyl}-3-(1,1,2,3,3,3-hexafluoropropoxy)-5-methylaminopyrazole] | – | – | ≥ 90 | – | – | ≥ 90 | – | ≥ 90 | ≥ 90
11 | – | CNc1cc(OC(F)(F)C(F)OC(F)(F)C(F)(F)C(F)(F)F)nn1-c1cc(SCC(F)(F)F)c(C)cc1F (stereo not shown) [1-347, 1-{2-fluoro-4-methyl-5-(2,2,2-trifluoroethylthio)phenyl}-5-methylamino-3-{1,1,2-trifluoro-2-(heptafluoropropoxy)ethoxy}pyrazole] | – | – | ≥ 90 | – | – | ≥ 90 | ≥ 90 | ≥ 90 | ≥ 90
12 | – | C#CCNc1cc(OC(F)(F)C(F)OC(F)(F)C(F)(F)C(F)(F)F)nn1-c1cc(SCC(F)(F)F)c(C)cc1F (stereo not shown) [1-357, 1-{2-fluoro-4-methyl-5-(2,2,2-trifluoroethylthio)phenyl}-5-(2-propynylamino)-3-{1,1,2-trifluoro-2-(heptafluoropropoxy)ethoxy}pyrazole] | – | – | ≥ 90 | – | – | ≥ 90 | ≥ 90 | ≥ 90 | ≥ 90
13 | – | CNc1cc(OC(F)(F)C(F)(F)C(F)(F)C(F)(F)C(F)(F)F)nn1-c1cc(SCC(F)(F)F)c(C)cc1F [1-524, 1-{2-fluoro-4-methyl-5-(2,2,2-trifluoroethylthio)phenyl}-5-methylamino-3-(1,1,2,2,3,3,4,4,5,5,5-undecafluoropentyloxy)pyrazole] | – | – | ≥ 90 | – | – | ≥ 90 | ≥ 90 | ≥ 90 | –
14 | – | CNc1cc(OC(F)(F)C(F)(F)C(F)(F)C(F)(F)C(F)(F)F)nn1-c1cc([S+]([O-])CC(F)(F)F)c(C)cc1F (stereo not shown) [1-525, 1-{2-fluoro-4-methyl-5-(2,2,2-trifluoroethylsulfinyl)phenyl}-5-methylamino-3-(1,1,2,2,3,3,4,4,5,5,5-undecafluoropentyloxy)pyrazole] | – | – | ≥ 90 | – | – | ≥ 90 | ≥ 90 | ≥ 90 | –
15 | – | COc1cc(OC(F)(F)C(F)OC(F)(F)F)nn1-c1cc([S+]([O-])CC(F)(F)F)c(C)cc1F (stereo not shown) [1-795, 1-{2-fluoro-4-methyl-5-(2,2,2-trifluoroethylsulfinyl)phenyl}-5-methoxy-3-{1,1,2-trifluoro-2-(trifluoromethoxy)ethoxy}pyrazole] | ≥ 90 | ≥ 90 | ≥ 90 | ≥ 90 | ≥ 90 | – | – | – | –
16 | – | CC(=O)Nc1cc(OC(F)(F)C(F)F)nn1-c1cc([S+]([O-])CC(F)(F)F)c(C)cc1F (stereo not shown) [1-1368, 5-acetylamino-1-{2-fluoro-4-methyl-5-(2,2,2-trifluoroethylsulfinyl)phenyl}-3-(1,1,2,2-tetrafluoroethoxy)pyrazole] | ≥ 90 | ≥ 90 | ≥ 90 | ≥ 90 | ≥ 90 | – | – | – | –
17 | – | Cc1cc(F)c(-n2nc(OCC(F)(F)C(F)(F)C(F)(F)F)cc2NC=O)cc1SCC(F)(F)F [1-1593, 1-{2-fluoro-4-methyl-5-(2,2,2-trifluoroethylthio)phenyl}-5-formylamino-3-(2,2,3,3,4,4,4-heptafluorobutoxy)pyrazole] | – | – | ≥ 90 | – | – | ≥ 90 | ≥ 90 | ≥ 90 | ≥ 90
18 | – | Cc1cc(F)c(-n2nc(OCC(F)(F)C(F)(F)C(F)(F)F)cc2NC=O)cc1[S+]([O-])CC(F)(F)F (stereo not shown) [1-1594, 1-{2-fluoro-4-methyl-5-(2,2,2-trifluoroethylsulfinyl)phenyl}-5-formylamino-3-(2,2,3,3,4,4,4-heptafluorobutoxy)pyrazole] | – | – | – | – | – | ≥ 90 | – | ≥ 90 | ≥ 90
